Tested on: 6-OHDA mouse model of Parkinson's disease
Test: Studies C and D: amphetamine-induced ipsilateral rotations in the 6-OHDA mouse model
Assay type: in vivo, C57BL6 mice
Settings: day 21 after 6-OHDA (12 μg)
Experimental: To determine the oral efficacy of the compound of formula (I) in the 6-OHDA mouse model of Parkinson's disease.
8-week-old C57BL6 male mice (obtained from ARC, Perth, Australia) were housed under a 12-h light cycle in a SPF climate-controlled facility with food and water provided ad libitum for two weeks prior to study initiation. For treatment with the compound of formula (I), mice were dosed via oral gavage. Ten (10) mice in each group were dosed at 3 or 1 mg/kg, starting the day before (24 hr prior) stereotaxic surgery, and then QD until sacrifice.
6-OHDA (Sigma) was prepared immediately prior to surgeries. A sterile saline (0.9%) solution containing ascorbic acid (0.2%) was used as the vehicle to dissolve 6-OHDA. […] In order to inject a final concentration of 12 μg into the right striatum, a working stock of 6 mg/ml was made injecting a final volume of 2 μl.
Mice were anaesthetized using ketamine (100 mg/kg, i.p.) and xylazine (10 mg/kg i.p.)
anesthesia and were placed into a stereotactic frame with nose and ear bars specially adapted for mice. The lesion was performed using a 5 μl Hamilton syringe to deliver either vehicle or 6-OHDA (12 μg) at the following coordinates relative to bregma: AP: −1.2 mm; ML: −1.7 mm; DV: 3.5 mm into the right dorsal striatum according to the stereotaxic atlas (“The mouse brain in stereotaxic coordinates” by Paxinos and Franklin, 1997). After drilling a 1 mm burr-hole in the skull, a 2 μl volume of solution was infused at the target site at the rate of 0.5 μl per minute. The needle was held in place for at least 5 minutes after injection to minimize retrograde flow along the needle tract. Mice were administered a subcutaneous injection of sterile Ringer's solution to is facilitate recovery and were placed on a heat-pad until complete recovery from anesthesia.
Amphetamine-induced ipsilateral rotations were performed at day 21 post-surgery. Mice were injected with 2 mg/kg of D-amphetamine and placed in circular glass bowls.
After an acclimatization period of five minutes, the net ipsilateral rotations over ten minutes were recorded and counted. Quantitation was performed from recorded videos by an investigator blinded to the treatment groups.
The aim of study D was to compare the neuroprotective efficacy of the compound of formula (I) with MCC95o in the mouse unilateral 6-OHDA model at 3 mg/kg. The amphetamine-induced ipsilateral rotations and striatal dopamine (DA) levels were assessed, using a protocol identical to that used for study C, with ten (10) mice in each group being dosed at 3 mg/kg for each drug, starting the day before (24 hr prior) stereotaxic surgery, and then daily throughout until sacrifice.

CC(C)n1ccc(S(=O)(=O)NC(=O)Nc2c3c(cc4c2CCC4)CCC3)n1 [compound of formula (I)]
amphetamine-induced ipsilateral rotations (Study C, 3 mg/kg oral gavage QD from 24 hr before surgery): significant protective effect
amphetamine-induced ipsilateral rotations (Study D, 3 mg/kg oral daily): fewer ipsilateral rotations compared to MCC950
reduction in amphetamine-induced rotations relative to the 6-OHDA untreated group (Study D, 3 mg/kg oral daily): 75%
